ChEMBL document CHEMBL1201862, “PubChem BioAssay data set” (2004)
Active and inactive are the calls of the source.

Assays:
[1] = biological target: Potassium voltage-gated channel subfamily KQT member 2 (Rattus norvegicus, UniProt O88943, W236L); assay: potentiation of rat KCNQ2 current – cell-based, automated electrophysiology, mechanism study for KCNQ2 potentiator project, dose response (AID 2603); type: functional
[2] = biological target: T1, Replicative DNA helicase DnaB (Mycobacterium tuberculosis, UniProt P9WMR3); assay: DnaB intein splicing inhibitors, dose response, biochemical, cell-free fluorescence (AID 449749); type: functional
T1 sequence (P9WMR3 whole entry): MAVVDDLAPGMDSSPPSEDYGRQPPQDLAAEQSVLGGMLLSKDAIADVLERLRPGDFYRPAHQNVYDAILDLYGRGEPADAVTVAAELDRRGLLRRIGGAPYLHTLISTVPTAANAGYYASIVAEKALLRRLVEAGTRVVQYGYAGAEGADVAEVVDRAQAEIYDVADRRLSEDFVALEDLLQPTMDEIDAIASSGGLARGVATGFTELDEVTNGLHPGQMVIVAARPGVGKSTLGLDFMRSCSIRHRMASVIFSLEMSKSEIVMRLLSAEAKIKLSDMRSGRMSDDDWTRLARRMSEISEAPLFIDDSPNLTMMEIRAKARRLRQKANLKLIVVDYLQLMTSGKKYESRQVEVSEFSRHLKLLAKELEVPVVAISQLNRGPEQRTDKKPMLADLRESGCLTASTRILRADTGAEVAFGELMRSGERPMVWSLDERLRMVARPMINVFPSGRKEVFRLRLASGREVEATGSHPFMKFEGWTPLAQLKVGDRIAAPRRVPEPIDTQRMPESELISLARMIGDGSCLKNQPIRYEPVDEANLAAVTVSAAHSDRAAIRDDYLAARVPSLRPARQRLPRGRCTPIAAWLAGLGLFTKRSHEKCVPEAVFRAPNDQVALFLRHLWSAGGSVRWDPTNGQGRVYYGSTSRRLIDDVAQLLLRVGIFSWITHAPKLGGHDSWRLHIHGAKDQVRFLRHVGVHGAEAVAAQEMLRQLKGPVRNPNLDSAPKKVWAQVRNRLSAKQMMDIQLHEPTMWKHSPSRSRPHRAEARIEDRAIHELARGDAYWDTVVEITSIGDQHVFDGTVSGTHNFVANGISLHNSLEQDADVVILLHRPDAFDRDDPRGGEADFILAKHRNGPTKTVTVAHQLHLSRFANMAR

[3] = biological target: T2, Protein RecA (Mycobacterium tuberculosis, UniProt P9WHJ3); assay: Fluorescence Cell-Free Homogeneous Dose Retest to Identify Inhibitors of RecA-Intein Splicing Activity. [Related pubchem assays (depositor defined):AID2097, AID2223, AID489010, AID492950]; type: functional
T2 sequence (P9WHJ3 whole entry): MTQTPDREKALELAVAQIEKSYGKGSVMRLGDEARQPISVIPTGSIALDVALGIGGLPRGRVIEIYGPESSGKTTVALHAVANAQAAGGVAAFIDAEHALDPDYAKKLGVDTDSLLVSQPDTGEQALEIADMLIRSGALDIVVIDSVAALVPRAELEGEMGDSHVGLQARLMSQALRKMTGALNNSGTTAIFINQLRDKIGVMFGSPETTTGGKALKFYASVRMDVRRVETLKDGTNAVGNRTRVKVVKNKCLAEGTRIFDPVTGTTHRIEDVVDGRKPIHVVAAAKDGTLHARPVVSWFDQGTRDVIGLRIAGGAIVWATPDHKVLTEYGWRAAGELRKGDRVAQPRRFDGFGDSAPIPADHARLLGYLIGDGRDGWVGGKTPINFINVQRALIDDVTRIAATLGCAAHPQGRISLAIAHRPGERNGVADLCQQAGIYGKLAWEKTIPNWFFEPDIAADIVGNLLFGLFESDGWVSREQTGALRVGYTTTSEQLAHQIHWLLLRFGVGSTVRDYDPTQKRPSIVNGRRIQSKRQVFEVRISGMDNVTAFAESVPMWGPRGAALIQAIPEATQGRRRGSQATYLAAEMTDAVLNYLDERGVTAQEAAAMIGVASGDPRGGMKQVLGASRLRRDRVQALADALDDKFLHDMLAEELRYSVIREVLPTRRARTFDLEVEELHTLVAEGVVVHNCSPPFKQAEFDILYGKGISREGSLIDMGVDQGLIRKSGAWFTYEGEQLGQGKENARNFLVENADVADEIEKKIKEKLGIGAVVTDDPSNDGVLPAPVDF

[4] = biological target: Genome polyprotein (dengue virus type 2, UniProt P29990); assay: flavivirus cap methylation enzyme inhibition – biochemical, confirmation dose response, primary screen (AID 588689); type: functional
[5] = biological target: Peroxisome proliferator-activated receptor gamma/Nuclear receptor coactivator 2 (Homo sapiens, UniProt P37231); type: functional;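 also: agonist potency for raising coactivator recruitment to the receptor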
Sequence of Peroxisome proliferator-activated receptor gamma/Nuclear receptor coactivator 2 (P37231 whole entry): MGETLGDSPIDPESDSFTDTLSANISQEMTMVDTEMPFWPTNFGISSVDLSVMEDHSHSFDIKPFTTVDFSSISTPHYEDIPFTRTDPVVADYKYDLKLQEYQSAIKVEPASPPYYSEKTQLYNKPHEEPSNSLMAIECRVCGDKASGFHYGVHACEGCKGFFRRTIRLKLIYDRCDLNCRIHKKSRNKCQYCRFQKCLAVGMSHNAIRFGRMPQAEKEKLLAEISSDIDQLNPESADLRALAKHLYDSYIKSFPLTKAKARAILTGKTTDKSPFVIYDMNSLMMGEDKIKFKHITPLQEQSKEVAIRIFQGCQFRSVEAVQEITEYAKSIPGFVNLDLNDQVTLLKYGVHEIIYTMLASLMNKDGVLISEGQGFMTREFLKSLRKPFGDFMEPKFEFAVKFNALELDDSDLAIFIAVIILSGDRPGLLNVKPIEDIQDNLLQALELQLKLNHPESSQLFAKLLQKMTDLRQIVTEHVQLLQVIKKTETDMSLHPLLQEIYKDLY
Sequence of Peroxisome proliferator-activated receptor gamma/Nuclear receptor coactivator 2 (Q15596 whole entry, further chain): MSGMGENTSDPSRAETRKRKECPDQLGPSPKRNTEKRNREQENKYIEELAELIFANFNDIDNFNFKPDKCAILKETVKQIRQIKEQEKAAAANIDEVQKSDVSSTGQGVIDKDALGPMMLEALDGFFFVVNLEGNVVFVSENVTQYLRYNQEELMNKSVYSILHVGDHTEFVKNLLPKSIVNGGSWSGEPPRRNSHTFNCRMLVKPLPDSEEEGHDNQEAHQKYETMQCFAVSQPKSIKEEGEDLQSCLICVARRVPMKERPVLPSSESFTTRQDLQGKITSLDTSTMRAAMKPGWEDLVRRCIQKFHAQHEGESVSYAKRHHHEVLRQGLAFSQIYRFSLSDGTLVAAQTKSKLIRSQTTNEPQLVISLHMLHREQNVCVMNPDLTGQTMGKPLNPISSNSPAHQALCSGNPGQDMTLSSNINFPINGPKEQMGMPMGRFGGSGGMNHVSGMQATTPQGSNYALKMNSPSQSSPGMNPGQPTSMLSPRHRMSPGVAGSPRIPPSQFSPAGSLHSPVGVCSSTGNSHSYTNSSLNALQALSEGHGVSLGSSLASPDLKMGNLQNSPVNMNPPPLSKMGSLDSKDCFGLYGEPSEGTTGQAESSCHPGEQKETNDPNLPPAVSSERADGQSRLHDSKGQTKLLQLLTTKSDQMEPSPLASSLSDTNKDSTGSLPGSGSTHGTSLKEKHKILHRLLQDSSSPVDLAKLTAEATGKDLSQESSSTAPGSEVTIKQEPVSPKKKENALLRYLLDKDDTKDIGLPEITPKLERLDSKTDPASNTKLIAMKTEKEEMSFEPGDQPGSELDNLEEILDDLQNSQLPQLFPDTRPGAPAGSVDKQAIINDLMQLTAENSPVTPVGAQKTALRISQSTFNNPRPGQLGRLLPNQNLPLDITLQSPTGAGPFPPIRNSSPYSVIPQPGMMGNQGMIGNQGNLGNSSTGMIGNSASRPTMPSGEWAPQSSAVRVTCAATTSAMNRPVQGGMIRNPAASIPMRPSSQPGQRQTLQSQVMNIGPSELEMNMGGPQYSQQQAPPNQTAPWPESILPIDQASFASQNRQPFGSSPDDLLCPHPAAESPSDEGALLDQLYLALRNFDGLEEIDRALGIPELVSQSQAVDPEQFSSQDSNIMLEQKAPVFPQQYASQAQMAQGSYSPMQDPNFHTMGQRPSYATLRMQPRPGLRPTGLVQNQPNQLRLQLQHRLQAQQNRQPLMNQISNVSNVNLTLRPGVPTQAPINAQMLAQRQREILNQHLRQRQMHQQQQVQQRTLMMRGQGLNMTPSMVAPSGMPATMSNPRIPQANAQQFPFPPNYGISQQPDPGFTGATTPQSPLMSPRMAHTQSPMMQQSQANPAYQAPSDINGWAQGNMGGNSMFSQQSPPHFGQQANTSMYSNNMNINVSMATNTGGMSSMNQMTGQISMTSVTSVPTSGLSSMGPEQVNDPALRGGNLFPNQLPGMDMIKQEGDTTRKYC

[6] = biological target: Peroxisome proliferator-activated receptor gamma/Nuclear receptor coactivator 1 (Homo sapiens, UniProt P37231); type: functional;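 also: agonist potency as compounds enhance coactivator SRC-1 recruitment to PPARgamma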
Sequence of Peroxisome proliferator-activated receptor gamma/Nuclear receptor coactivator 1 (P37231 whole entry): as the sequence (P37231 whole entry) above
Sequence of Peroxisome proliferator-activated receptor gamma/Nuclear receptor coactivator 1 (Q15788 whole entry, further chain): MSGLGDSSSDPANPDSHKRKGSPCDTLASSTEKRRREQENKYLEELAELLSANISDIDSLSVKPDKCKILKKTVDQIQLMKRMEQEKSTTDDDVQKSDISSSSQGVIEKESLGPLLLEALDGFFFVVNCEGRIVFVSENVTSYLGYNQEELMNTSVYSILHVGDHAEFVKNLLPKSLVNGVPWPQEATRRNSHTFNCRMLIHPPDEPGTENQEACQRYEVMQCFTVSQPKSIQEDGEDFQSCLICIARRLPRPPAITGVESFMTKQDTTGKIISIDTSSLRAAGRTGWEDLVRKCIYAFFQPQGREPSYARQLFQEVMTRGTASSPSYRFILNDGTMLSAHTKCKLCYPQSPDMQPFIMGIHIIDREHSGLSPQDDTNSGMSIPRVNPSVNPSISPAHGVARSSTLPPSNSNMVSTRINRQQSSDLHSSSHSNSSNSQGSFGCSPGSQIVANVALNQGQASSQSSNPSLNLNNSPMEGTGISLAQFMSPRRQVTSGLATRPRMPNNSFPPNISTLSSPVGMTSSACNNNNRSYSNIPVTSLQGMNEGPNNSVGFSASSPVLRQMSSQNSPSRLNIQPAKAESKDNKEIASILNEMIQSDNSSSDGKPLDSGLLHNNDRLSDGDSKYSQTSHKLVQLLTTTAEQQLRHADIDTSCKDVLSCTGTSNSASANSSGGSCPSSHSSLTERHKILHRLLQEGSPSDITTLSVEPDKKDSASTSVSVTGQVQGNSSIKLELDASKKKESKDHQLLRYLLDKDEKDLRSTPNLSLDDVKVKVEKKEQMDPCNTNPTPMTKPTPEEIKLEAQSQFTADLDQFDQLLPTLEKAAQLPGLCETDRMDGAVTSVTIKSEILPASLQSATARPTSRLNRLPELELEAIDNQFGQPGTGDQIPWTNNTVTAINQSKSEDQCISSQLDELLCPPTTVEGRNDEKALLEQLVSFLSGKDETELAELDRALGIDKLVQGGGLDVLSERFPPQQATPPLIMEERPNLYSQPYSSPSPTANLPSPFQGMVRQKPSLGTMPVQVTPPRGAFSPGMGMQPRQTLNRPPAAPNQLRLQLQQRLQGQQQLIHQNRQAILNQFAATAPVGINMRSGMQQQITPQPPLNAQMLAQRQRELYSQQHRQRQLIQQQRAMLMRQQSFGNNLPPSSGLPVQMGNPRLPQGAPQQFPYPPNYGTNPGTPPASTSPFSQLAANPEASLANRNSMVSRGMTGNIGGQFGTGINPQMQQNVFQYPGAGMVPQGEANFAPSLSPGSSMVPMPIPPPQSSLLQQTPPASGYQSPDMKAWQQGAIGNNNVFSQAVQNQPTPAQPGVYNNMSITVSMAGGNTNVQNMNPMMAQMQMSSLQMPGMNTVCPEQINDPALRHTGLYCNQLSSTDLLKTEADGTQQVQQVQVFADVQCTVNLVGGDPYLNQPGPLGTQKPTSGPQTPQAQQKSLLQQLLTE

[7] = biological target: Peroxisome proliferator-activated receptor gamma/Nuclear receptor coactivator 3 (Homo sapiens, UniProt P37231); type: functional;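 also: agonist potency for raising coactivator recruitment to the receptor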
[8] = biological target: Glyceraldehyde-3-phosphate dehydrogenase (Homo sapiens, UniProt P04406)
Sequence of Glyceraldehyde-3-phosphate dehydrogenase (P04406 whole entry): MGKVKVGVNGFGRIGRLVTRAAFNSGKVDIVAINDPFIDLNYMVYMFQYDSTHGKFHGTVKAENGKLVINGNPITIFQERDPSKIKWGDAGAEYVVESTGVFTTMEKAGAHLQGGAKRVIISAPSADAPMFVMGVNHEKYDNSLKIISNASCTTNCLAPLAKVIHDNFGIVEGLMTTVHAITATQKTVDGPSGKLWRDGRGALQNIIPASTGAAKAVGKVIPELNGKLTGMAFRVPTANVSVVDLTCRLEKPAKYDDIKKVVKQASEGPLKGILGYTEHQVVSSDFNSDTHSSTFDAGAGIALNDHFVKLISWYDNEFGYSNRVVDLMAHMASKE

Sequence of Potassium voltage-gated channel subfamily KQT member 2 (O88943 whole entry W236L): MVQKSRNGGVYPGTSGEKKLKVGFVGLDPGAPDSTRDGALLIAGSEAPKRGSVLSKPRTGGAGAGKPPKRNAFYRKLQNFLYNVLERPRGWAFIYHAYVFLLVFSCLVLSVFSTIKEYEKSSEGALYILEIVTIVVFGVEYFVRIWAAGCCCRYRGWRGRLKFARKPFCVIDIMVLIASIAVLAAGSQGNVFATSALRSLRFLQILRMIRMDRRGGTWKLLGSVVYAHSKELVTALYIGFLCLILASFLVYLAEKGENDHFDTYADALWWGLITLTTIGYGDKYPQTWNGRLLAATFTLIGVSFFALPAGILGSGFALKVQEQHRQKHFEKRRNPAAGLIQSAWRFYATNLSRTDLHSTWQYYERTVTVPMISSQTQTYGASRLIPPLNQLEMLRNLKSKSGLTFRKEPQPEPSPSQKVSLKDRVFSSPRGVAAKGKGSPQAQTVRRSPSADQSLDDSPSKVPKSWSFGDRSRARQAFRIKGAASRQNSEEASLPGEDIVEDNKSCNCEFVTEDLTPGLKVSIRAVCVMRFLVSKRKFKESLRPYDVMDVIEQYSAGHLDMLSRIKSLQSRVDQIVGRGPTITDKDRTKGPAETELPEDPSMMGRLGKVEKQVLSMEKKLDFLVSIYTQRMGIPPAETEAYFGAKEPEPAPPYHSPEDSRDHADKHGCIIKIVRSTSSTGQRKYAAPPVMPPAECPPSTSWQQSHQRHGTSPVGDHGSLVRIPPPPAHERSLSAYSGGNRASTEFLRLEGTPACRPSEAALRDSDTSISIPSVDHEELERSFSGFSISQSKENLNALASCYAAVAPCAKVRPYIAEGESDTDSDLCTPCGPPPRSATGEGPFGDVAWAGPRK

Row | Structure (SMILES) | EC50 [5] | EC50 [6] | EC50 [7] | other results
1 | Cc1oc2cc([N+](=O)[O-])c(O)c([N+](=O)[O-])c2c1C(=O)c1ccc(Cl)cc1 | – | – | – | EC50 [1]: 555 µM (active); AC50 [2]: 4.12 µM (active); EC50 [3]: 10.4 µM (active); IC50 [4]: 61.9 µM (active)
2 | O=C(CCSCc1ccccc1Cl)NCc1cccs1 | > 79.4 µM (not active) | > 79.4 µM (not active) | > 79.4 µM (not active) | –
3 | O=c1cc(Cn2ccnc2)c2cc3c(cc2o1)CCC3 | > 79.4 µM (not active) | > 79.4 µM (not active) | > 79.4 µM (not active) | –
4 | COc1cccc(N2C(=O)C(Cl)=C(N(C)C)C2=O)c1 | – | – | – | IC50 [8]: > 50 µM (inconclusive)
